The text below walks through data of US7700763B2, “3-triazolyl-galactoside inhibitors of galectins” (Forskarpatent I Syd AB, priority 2004, dated 2010).

Molecules are shown by their SMILES. pKd: −log10 of the molar value. Read-outs that look alike come from different tables or passages of the source.

Test [1] addresses T1, Recombinant human galectin-3 (Homo sapiens, UniProt P17931).
T1 construct: made in house; host or cells: Escherichia coli
Nature of the test: fluorescence polarization-based galectin-3 inhibition assay. The format is binding. The following applies: for pKd: read-out: Calculated Kd. As for the experimental part:
NMR-spectra were recorded with a Bruker DRX-400 instrument. Chemical shifts are given in ppm, with reference to internal residual solvent peaks. Chemical shifts and coupling constants were obtained from ^1H-NMR and proton resonances were assigned from COSY experiments. High-resolution FAB mass spectra (HRMS) were recorded with a JEOL SX-120 instrument. Fluorescence polarization experiments were performed on a PolarStar instrument (BMG, Offenburg; Germany). Column chromatography was performed on SiO2 (Matrex, 60 Å, 35-70 μm, Grace Amicon) and TLC was carried out on SiO2 60 F254 (Merck) with detection under UV light and developed with aqueous sulfuric acid. Concentrations were made using rotary evaporation with bath temperature at or below 40° C. CH2Cl2 and CH3CN were dried by distillation from CaH2. Microwell plates were from Costar, Corning, N.Y. (black polystyrene). Recombinant human galectin-3 was produced in Escherichia coli and purified as previously described (S. M. Massa et al, 1993). PBS was 118 mM NaCl, 67 mM Na/K-phosphate, pH 7.2, 2 mM EDTA, 4 mM β-mercaptoethanol.
To 100 μL of galectin-3 (1 μM) and a fluorescent probe (2-(fluorescein-5/6-yl-carbonyl)-aminoethyl 4-O-[3-O-(4-methoxy]benzyl)-β-D-galactopyranosyl]-β-D-glucopyranoside, 0.1 μM) were added inhibitor solution (3.2-10000 μM, 100 μL), the plate was incubated under slow rotary shaking in the dark for 5 minutes, and fluorescence polarization measured at room temperature. The fluorescence was measured from above in 96 well microtiter plates (black polystyrene, Costar, Corning, N.Y.) using a PolarStar instrument (BMG, Offenburg; Germany). Control wells containing only fluorescent probe or fluorescein were included. All dilutions and measurements were done in PBS.

In a further test the test system is galectins. To be noted: cited from earlier work.
Setting [2] is: galectin-3, fluorescence polarization.

In general, pKd refers to the negative decadic logarithm of the Kd, by convention in mol/L. By Kd is commonly meant the equilibrium constant for the complex coming apart.

T1 sequence (P17931 whole entry): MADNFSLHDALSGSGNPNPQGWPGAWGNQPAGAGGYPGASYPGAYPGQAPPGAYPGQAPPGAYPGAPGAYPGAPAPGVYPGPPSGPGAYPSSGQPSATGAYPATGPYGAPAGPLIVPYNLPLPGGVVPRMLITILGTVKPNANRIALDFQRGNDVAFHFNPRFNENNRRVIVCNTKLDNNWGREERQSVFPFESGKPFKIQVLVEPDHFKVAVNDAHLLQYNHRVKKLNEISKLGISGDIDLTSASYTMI

On to `CS[C@@H]1O[C@H](CO)[C@H](O)[C@H](n2cc(C3(O)CCCCC3)nn2)[C@H]1O` [Compound 11, Methyl 3-deoxy-3-(4-(1-hydroxy-1-cyclohexyl)-1H-[1,2,3]-triazol-1-yl)-1-thio-β-D-galactopyranoside], for which, in test [1], the pKd was 2.86.

Regarding `CNC(=O)c1cn([C@H]2[C@@H](O)[C@@H](CO)O[C@@H](SC)[C@@H]2O)nn1` [Compound 14, Methyl 3-(4-methylaminocarbonyl-1H-[1,2,3]-triazol-1-yl)-3-deoxy-1-thio-β-D-galactopyranoside], the pKd in test [1] (affinity for galectin-3 calculated from test by fluorescence polarization at one tested conc., galectin-3 1 μM, probe 0.1 μM, PBS, room temperature) is 3.64.

Take `CCCCNC(=O)c1cn(C2C(O)[C@H](SC)OC(CO)[C@@H]2O)nn1` (stereo partly drawn) [Compound 15, Methyl 3-(4-butylaminocarbonyl-1H-[1,2,3]-triazol-1′-yl)-3-deoxy-1-thio-β-D-galactopyranoside]: in test [1] (setting [2]), the “improvement in Kd in comparison with the reference inhibitor 27” value was found to be 50 fold. Further, the pKd in test [1] was 3.91.

Regarding `O=C[C@H](O)[C@@H](O)[C@@H](O)[C@H](O)CO` [D-galactose], in the test on galectins (galectins, relative to lactose), the “affinity lower than lactose” value is given as 50-100 times.

For the compound `CS[C@@H]1OC(CO)[C@H](O)C(n2cc(C(=O)NCCN3CCOCC3)nn2)C1O` (stereo partly drawn) [Compound 18, Methyl 3-{4-[2-(N-morpholino)-ethylaminocarbonyl]-1H-[1,2,3]-triazol-1-yl}-3-deoxy-1-thio-β-D-galactopyranoside], in test [1], the pKd is 3.24.

As to `OC[C@H]1O[C@@H](O[C@H]2[C@H](O)[C@@H](O)C(O)O[C@@H]2CO)[C@H](O)[C@@H](O)[C@H]1O` (some centres unmarked) [lactose], the pKd on galectins (all galectins, reviewed by Leffler, 2001 and Leffler et al., 2004) was 3.00 to 3.30.

As for `CCCc1cn([C@H]2[C@@H](O)[C@@H](CO)O[C@@H](SC)[C@@H]2O)nn1` [Compound 9, Methyl 3-deoxy-3-(4-propyl-1H-[1,2,3]-triazol-1-yl)-1-thio-β-D-galactopyranoside], the pKd in test [1] is 2.34.

Consider `CS[C@@H]1O[C@H](CO)[C@H](O)[C@H](n2cc(-c3ccccc3)nn2)[C@H]1O` [Compound 12, Methyl 3-deoxy-3-(4-phenyl-1H-[1,2,3]-triazol-1-yl)-1-thio-β-D-galactopyranoside], for which, in test [1] (setting [2]), the “improvement in Kd in comparison with the reference inhibitor 27” value was determined as 50 fold. In addition, the pKd in test [1] is 3.83.

Turning to `CS[C@@H]1O[C@H](CO)[C@H](O)[C@H](n2ccnn2)[C@H]1O` [Compound 8, Methyl 3-deoxy-3-(1H-[1,2,3]-triazol-1-yl)-1-thio-β-D-galactopyranoside], the pKd in test [1] was 1.68.

As to `COC(=O)c1cn([C@H]2[C@@H](O)[C@@H](CO)O[C@@H](SC)[C@@H]2O)nn1` [Compound 10, Methyl 3-(4-methoxycarbonyl-1H-[1,2,3]-triazol-1-yl)-3-deoxy-1-thio-β-D-galactopyranoside], in test [1], the pKd is 2.85.

Take `CS[C@@H]1O[C@H](CO)[C@H](O)[C@H](n2cc(S(=O)(=O)c3ccc(C)cc3)nn2)[C@H]1O` [Compound 13, Methyl 3-deoxy-3-(4-p-tolylsulfonyl-1H-[1,2,3]-triazol-1-yl)-1-thio-β-D-galactopyranoside]: in test [1] (setting [2]), the “improvement in Kd in comparison with the reference inhibitor 27” value came out at 50 fold. Moreover, the negative logarithm of the Kd (pKd) in test [1] is 3.85.

In the case of `CNC(=O)c1cn([C@H]2[C@@H](O)[C@@H](CO)O[C@@H](S[C@@H]3O[C@H](CO)[C@H](O)[C@H](n4cc(C(=O)NC)nn4)[C@H]3O)[C@@H]2O)nn1` [Compound 26, Bis-(3-deoxy-3-{4-[(methylamino)carbonyl]-1H-1,2,3-triazol-1-yl}-β-D-galactopyranosyl)sulfane], the Kd in test [1] (galectin-3, fluorescence polarization, value given in text in nM, read-out: Kd) amounted to 150 nM.

Consider `CS[C@@H]1O[C@H](CO)[C@H](O)[C@H](n2cc(C(=O)NCc3ccccc3)nn2)[C@H]1O` [Compound 16, Methyl 3-(4-benzylaminocarbonyl-1H-[1,2,3]-triazol-1-yl)-3-deoxy-1-thio-β-D-galactopyranoside], for which the “improvement in Kd in comparison with the reference inhibitor 27” value in test [1] (setting [2]) came out at 50 fold.

Take `CS[C@@H]1O[C@H](CO)[C@H](O)[C@H](n2cc(C(=O)NCCCO)nn2)[C@H]1O` [Compound 17, Methyl 3-{4-(3-hydroxyprop-1-ylaminocarbonyl)-1H-[1,2,3]-triazol-1-yl}-3-deoxy-1-thio-β-D-galactopyranoside]: the pKd in test [1] was 3.41.
